Laboratory results as given in US20250057963A1, “DISCOVERY OF PIPERLONGUMINE AS A NOVEL E3 LIGASE LIGAND” (University of Florida Research Foundation, Incorporated, priority 2021, published 2025).
“Also recorded” adds a separate entry of the source.

Legend:
purified KEAP1 protein = target: T1, purified KEAP1 protein (Homo sapiens, UniProt Q14145); test: Gel-based competitive ABPP assay with IA-alkyne; assay type: binding; settings: purified His-KEAP1, serially diluted 955
T1 construct: made in house; host or cells: bacterial cells grown in LB and induced with IPTG
T1 sequence (Q14145 whole entry): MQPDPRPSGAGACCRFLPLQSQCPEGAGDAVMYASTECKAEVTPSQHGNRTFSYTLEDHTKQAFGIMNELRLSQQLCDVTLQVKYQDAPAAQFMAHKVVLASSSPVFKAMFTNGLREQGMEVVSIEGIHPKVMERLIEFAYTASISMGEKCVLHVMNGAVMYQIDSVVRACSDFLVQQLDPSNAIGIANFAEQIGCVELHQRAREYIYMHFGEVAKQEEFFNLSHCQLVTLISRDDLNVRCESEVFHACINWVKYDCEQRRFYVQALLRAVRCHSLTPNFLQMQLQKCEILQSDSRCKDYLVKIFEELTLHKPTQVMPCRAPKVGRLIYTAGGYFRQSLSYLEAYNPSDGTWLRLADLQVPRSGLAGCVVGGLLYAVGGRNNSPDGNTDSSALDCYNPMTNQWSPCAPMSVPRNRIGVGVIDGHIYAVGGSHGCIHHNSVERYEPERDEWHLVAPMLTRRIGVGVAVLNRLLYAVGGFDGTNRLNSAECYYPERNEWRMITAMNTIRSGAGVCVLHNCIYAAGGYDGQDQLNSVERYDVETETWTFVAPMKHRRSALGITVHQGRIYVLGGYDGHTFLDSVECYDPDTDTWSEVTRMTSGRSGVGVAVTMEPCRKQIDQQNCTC
Protocol: The plasmid pet28a-His6-Keap1 for expressing His-KEAP1 was purchased from Addgene (a gift from Yimon Aye, plasmid #62454). To purify His-KEAP1, the plasmid transformed cells were grown in LB broth at 37° C. with shaking until the optical density at 600 nm reached 0.6-0.7. Isopropyl-β-D-thiogalactopyranoside (1 mM) was added to induce protein expression overnight at 16° C. Cell pellet was resuspended in lysis buffer [50 mM Tris-Hcl (pH 7.5), 150 mM NaCl, 1 mM EDTA, 0.05% NP-40, […], lx protease inhibitor, and 1 mM DTT] and lysed using sonication. The lysate was cleared by centrifugation at 20,000×g for 30 min at 4° C. and purified by using GE Healthcare His GraviTrap™ Kit (Cat. No. 45-002-016, Fisher Scientific). After elution, the proteins were concentrated by using Pierce Protein Concentrators PES, 30K MWCO (Cat. No. 88502, ThermoFisher) and then dialyzed into the buffer containing 50 mM HEPES, 150 mM NaCl, and 0.1 mM EDTA (pH 7.5).
A gel-based ABPP assay was performed as previously described with some modifications (Ward et al., 2019). Briefly, Purified His-KEAP1 ([…]) was diluted into 50 μL of PBS and 0.5 μL of either DMSO (vehicle) or indicated compound was added to incubate at 25° C. for 1 h, then the samples were treated with 20 µM IA-Alkyne (Cat. No. 7015, Tocris, prepared in DMSO) at 25° C. for 1 h. […]

CDK9 = CDK9 (Homo sapiens, UniProt P50750); test: CDK9 degradation in MOLT4 cells (immunoblot); assay type: cell-based; parameters: endogenous in cells; host or cells: MOLT4, 293T, K562, NCI-H1299, LNCaP
Chain of CDK9 (P50750 whole entry): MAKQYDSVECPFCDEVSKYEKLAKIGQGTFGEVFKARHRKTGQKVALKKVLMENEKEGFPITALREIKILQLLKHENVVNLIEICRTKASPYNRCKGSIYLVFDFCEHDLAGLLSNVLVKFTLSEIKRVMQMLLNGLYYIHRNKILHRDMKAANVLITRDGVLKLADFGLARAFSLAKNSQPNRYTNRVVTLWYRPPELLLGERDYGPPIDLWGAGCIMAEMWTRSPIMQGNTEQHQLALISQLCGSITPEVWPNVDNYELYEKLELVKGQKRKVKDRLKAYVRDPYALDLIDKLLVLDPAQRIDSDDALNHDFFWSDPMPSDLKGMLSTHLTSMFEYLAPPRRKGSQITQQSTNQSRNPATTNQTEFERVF
Protocol: All the cell lines were maintained in a humidified incubator at 37° C. and 5% CO2.
Data analysis was performed using GraphPad Prism software (version 9) unless indicated otherwise. All graphs presented represent the mean±standard deviation of the mean (SD) unless otherwise stated.

competition with IA-alkyne for covalent binding to KEAP1 (purified KEAP1 protein): concentration-dependent manner | 955-induced CDK9 degradation after pre-treatment with PL or SNS-032 (CDK9): fully blocked | 955-induced CDK9 degradation with E1 inhibitors PYR-41 and TAK-243 (CDK9): E1-dependent | 955-induced CDK9 degradation with KEAP1 inhibitors CDDO-ME, CDDO-IM or DMF (CDK9): completely blocked | duration of CDK9 degradation effect in the time course (CDK9; 955 at 0.1 μM): at least 48 hours | time at which CDK9 was completely degraded (CDK9; 955 at 0.1 μM, time course): 8 h | time to almost complete degradation of CDK9 (CDK9; 955 at 0.1 μM, time course): ≤ 8 h | DC50 (CDK9; 16 h treatment, from ImageJ-quantified Western blots): 9 nM | duration of CDK9 degradation after removal (washout) of 955 (CDK9; washout): up to 18 h
SMILES: COc1cc(/C=C/C(=O)N2CCC=CC2=O)cc(OC)c1OCCN1CCN(C(=O)CN2CCC(C(=O)Nc3ncc(SCc4ncc(C(C)(C)C)o4)s3)CC2)CC1 [compound 955, (E)-N-(5-(((5-(tert-butyl)oxazol-2-yl)methyl)thio)thiazol-2-yl)-1-(2-(4-(2-(2,6-dimethoxy-4-(3-oxo-3-(6-oxo-3,6-dihydropyridin-1(2H)-yl)prop-1-en-1-yl)phenoxy)ethyl)piperazin-1-yl)-2-oxoethyl)piperidine-4-carboxamide]
955-induced CDK9 degradation after pre-treatment with autophagy/lysosome inhibitor Baf-A1 or chloroquine (CDK9): could not block CDK9 degradation; also recorded: does not block CDK9 degradation | 955-induced CDK9 degradation after pre-treatment with neddylation inhibitor MLN4924 (CDK9): could be blocked; also recorded: blocks 955-induced CDK9 degradation | 955-induced CDK9 degradation after pre-treatment with pan-caspase inhibitor QVD (CDK9): could not block CDK9 degradation; also recorded: does not block CDK9 degradation | 955-induced CDK9 degradation after pre-treatment with proteasome inhibitor MG132 or bortezomib (CDK9): could be blocked; also recorded: can be blocked | CDK9 degradation with short-term treatment (CDK9; 6 h treatment): potently degraded CDK9; also recorded: able to potently degrade CDK9 | CDK9 degradation (CDK9; immunoblot): only 955, degraded CDK9; also recorded: can induce CDK9 degradation
